Publication PMC7732128, “Regulation of gene transcription by thyroid hormone receptor β agonists in clinical development for the treatment of non-alcoholic steatohepatitis (NASH)” (PLoS ONE, 2020)
Where two headings read alike, the source gives them in different places.

Key:
THR (THRSP RNA in PHH) = test: Differential gene expression assay in primary human hepatocytes (PHH); format: cell-based; conditions: Hepatocyte, RT-qPCR, 24 hrs treatment, read-out: PHH EC50 Mean ± SEM
[1] = tested on: THR (ANGPTL4, CPT1A, DIO1 RNA in Huh-7 cells); test: Differential gene expression assay in Huh-7 cells; format: cell-based, human; conditions: for EC50: Homo sapiens; for fold less potent than T3: CPT1A transcription in Huh-7
Procedure: Hepatoma-derived Huh-7 cells (JCRB Cell Bank, JCRB0403) were obtained directly from the repository, which performed cell line authentication via isozyme analysis and comprehensively tested for microbial contamination, viral contamination, and cross culture contamination. Cells were routinely cultured in DMEM (Corning, 10-013-CM) supplemented with 10% FBS and 1% P/S at 37°C and 5% CO2 until 80–90% confluency. Cells were then detached with 0.05% trypsin (Corning, 25-052-CV), resuspended in TH-free medium (DMEM supplemented with 10% TH-depleted FBS and 1% P/S), and seeded into collagen-coated, 96-well microplates (Corning, 354407) at 5.0 x 10^4 cells/well. After 24 hrs, the culture medium was replaced with treatment media. Cells were treated for 24 hrs. TH-depletion of the FBS via resin treatment was accomplished as previously described. All treatment media were made by mixing test compounds, serially diluted in DMSO, with TH-free medium (0.1% final DMSO concentration).
After 24 hrs in treatment media, both Huh-7 cells and PHH were processed with the TaqMan Fast Advanced Cells-to-Ct Kit (Invitrogen, A35378), according to the manufacturer’s protocol. Briefly, the treatment media was removed and the cells were washed with 50 μL cold 1X phosphate-buffered saline (Corning, 21-040-CM). Fifty μL lysis buffer containing DNase I was added to each well and the plate was incubated on a rotor at RT for 5 mins. Five μL stop solution was then added to each well and after another 2 mins incubation on a rotor at RT, the cell lysates were used for reverse transcription. The resulting cDNA was diluted 1:2 with nuclease-free, distilled water (Invitrogen, 10977015). Gene expression was measured using TaqMan Fast Advanced Master Mix (Applied Biosystems, 4444964) and the following TaqMan Gene Expression assays (Applied Biosystems, 4331182): 18S (Hs99999901_s1), ACTB (Hs01060665_g1), ANGPTL4 (Hs01101123_g1), CPT1A (Hs00912671_m1), DIO1 (Hs00174944_m1), TFG (Hs02832013_g1), THRA (Hs00268470_m1), and THRB (Hs00230861_m1). ACTB and TFG served as control housekeeping genes for Huh-7 assays and 18S and ACTB for PHH assays. Ten μL reactions were run on the qTOWER³ 84 (Analytik Jena). Relative quantification (RQ) of gene expression was calculated via the 2^−ΔΔCt method and dose-response curves were fitted by non-linear regression with variable slope. Statistical analysis was performed in GraphPad Prism 8.
We aimed to develop an in vitro, cell-based assay that is not only amenable to high throughput screening of compounds, but that can also more reliably recapitulate in vivo processes. Because activated THR may function as a transcription factor, we compared the action of THR agonists in a human hepatocyte-derived cell line and in primary human hepatocytes (PHH) by quantifying transcriptional changes resulting from compound treatment (Fig 2A). Cells were cultured in TH-depleted media for 24 hrs and then treated with compounds for 24 hrs. The RNA levels of THR target genes were then measured via RT-qPCR.

[2] = Huh-7, CPT1A RNA, RT-qPCR, 24 hrs treatment, read-out: Huh-7 EC50 Mean ± SEM

EC50 [1, 2] | EC50 ([1]; Huh-7, 24 hrs, n = 2 (Fig 2C), read-out: mean EC50, ANGPTL4) | EC50 ([1]; Huh-7, 24 hrs, n = 2 (Fig 2C), read-out: mean EC50, CPT1A) | EC50 ([1]; Huh-7, 24 hrs, n = 2 (Fig 2C), read-out: mean EC50, DIO1) | Compound | EC50 (THR (THRSP RNA in PHH)) | fold less potent than T3 [1] | times weaker than VK2809A ([1]; Huh-7 assay)
8.3 ± 2.2 nM | – | – | – | Cc1cc(OCP(=O)(O)O)cc(C)c1Cc1ccc(O)c(C(C)C)c1 [VK2809A] | 14.8 ± 10.7 nM | approximately 30 fold | –
589 ± 120 nM | – | – | – | Cc1cc(OCP2(=O)OCC[C@@H](c3cccc(Cl)c3)O2)cc(C)c1Cc1ccc(O)c(C(C)C)c1 (stereo partly drawn) [VK2809] | 18.7 ± 8.9 nM | ~2,000 fold | 71 times
